{
  "source": "patent US5457092A",
  "about": "“Methods of promoting bone growth in mammals comprising administration of modified parathyroid hormone” (Gesellschaft fur Biotechnologische Forschung mbH (GBF), priority 1987, dated 1995)",
  "key": {"[1]": {"system": "chondrocytes from sterna of 16-day-old embryonic chicks", "assay": "Stimulation of DNA synthesis in chondrocytes by PTH fragments (Table 1)", "type": "cell-based, chick", "conditions": "for [^3 H]thymidine incorporation: 4 h, control 139 ± 6; for E/C: stimulated / non-induced control cells", "description": "Chondrocytes were isolated from sterna of 16-day-old embryonic chicks according to J. Biol. Chem., 261 (1986) 7997-8001 (10; Yasui et al.) with some modifications. Collagenase was dissolved in Hanks' balanced salt solution (0.4 mM Na2 HPO4, 140 mN NaCl, 5.3 mM KCl, 0.4 mM MgSO4, 1.3 mM CaCl2, 0.4 mM KH2 PO4, 0.5 mM MglC2, 5 mM glucose, 0.05% gentamicin) at a concentration of 286 units/ml. Sterna were treated repeatedly for 30 min with collagenase solution at 37° C. Cells first released by this procedure were discarded because of their very poor responsiveness towards PTH. The collagenase treatment was subsequently repeated leading to a highly homogenous cell population of chondrocytes. The cells obtained by a second collagenase treatment were collected by centrifugation (1000 rpm, 10 min), washed twice with medium (Dulbecco's modified Eagle's medium, GIBCO, supplemented with NaHCO3 (45 mM), glutamine (2 mM), penicillin G/streptomycin (65 mg/1 and 100 mg/l, respectively), Hepes (10 mM, pH 7.2), and FCS (10% v/v) and counted.\nThe DNA synthesis rate was assayed in monolayer culture by the incorporation of ]^3 H]thymidine into perchloric acid-precipitable material. […] After 17 h, the medium was replaced by 200 μl of serum-free medium. After 4 days, chondrocytes were incubated for 4 h with the appropriate effector and 1μ Ci of [^3 H]thymidine. Subsequently, medium was removed and the cells were washed twice with 200 μl of phosphate-buffered saline (PBS: 137 mM NaCl, 2.7 mN KCl, 1.5 mM KH2 PO4, 0.8 mN Na2 HPO4, pH 7.0). Then cells were lysed by 100 μl of 2% (v/v) Nonidet P- 40 and 2% (w/v) sodium dodecyl sulfate treatment and the perchloric acid-insoluble material was precipitated by adding an equal volume of ice-cold 2% (w/v) perchloric acid in the presence of 1% herring sperm DNA as carrier. After storage for 10 min at -20° C., the precipitated material of each well was transferred to glass fiber filters with a Scatron--As semiautomatic cell harvester. Filters were dried at 80° C. for 20 min, transferred into scintillation vials, and 2 ml of scintillation mixture (scintillator 299; United Technology Pachard) were added. Radioactivity of the samples was determined with a β counter (Minimax; United Technology Pachard). Each test consisted of 5 up to 10 identically treated wells and was repeated at least twice with freshly prepared chondrocytes.\nThe incorporation of [^3 H]thymidine by non-induced control cells and by stimulated cells is shown by C and E, respectively. The results shown mean ±S.E. for n parallel cell cultures."}, "[2]": {"system": "osteoblast enriched rat embryo calvaria cell cultures", "assay": "Cyclic AMP production in rat embryo calvaria cell cultures", "type": "cell-based", "conditions": "100 nM; 15 min; control 29 ± 2.9 pmol/mg of protein", "description": "(§1) FIG. 10 is a graphical representation showing the dose dependent stimulation by bPTH (1-84) of osteoblast enriched rat embryo calvaria cell cultures. Experimental details for the determination of cyclic AMP (.quadrature.) (15 min after stimulation) and incorporation of [^3 H]thymidine into DNA ( ) and CK ( ) specific activity (24 h after stimulation) are given below. The results are means ±S.E.M., N≥5. In several cases the S.E.M. was less than the size of the symbol. Control values were: cyclic AMP, 25±5 pmol/mg of protein; DNA, 240±30 c.p.m./μg of DNA; CK, 200±20 nmol/min per mg of protein. Statistical significance of differences between treated and corresponding control groups by Student's T test: *P<0.05; **P<0.01.\n(§2) Rat calvaria cultures were treated with fragments of PTH derived from the central portion of the molecule."}, "[3]": {"system": "ROS 17/2.8 osteoblast-like cells", "assay": "Cyclic AMP production in ROS 17/2.8 osteoblast-like cells", "type": "cell-based, rat", "conditions": "400 nM; control 29 ± 5.2 pmol/mg of protein", "description": "When cultures of the widely used model for osteoblasts, the osteoblast-likeclone of rat osteosarcoma, ROS 17/2.8 (Endocrinology (Baltimore), 107 (1980) 1494-1503=12; Majeska et al.), were incubated with full-length PTH and PTH fragments (Table 4), cyclic AMP production was stimulated only by bPTH(1-84) and hPTH(1-34), whereas hPTH(25-39), hPTH(27-48), hPTH(28-48) and hPTH(34-47) were ineffective."}, "[4]": {"system": "osteoblast enriched rat embryo calvaria cell cultures", "assay": "DNA synthesis ([3H]thymidine incorporation) in rat embryo calvaria cell cultures", "type": "cell-based", "description": "as §1"}, "[5]": {"system": "osteoblast enriched rat embryo calvaria cell cultures", "assay": "CK specific activity in rat embryo calvaria cell cultures", "type": "cell-based", "conditions": "100 nM; 24 h; control 457 ± 46 nmol/min per mg of protein", "description": "as §1, §2"}, "[6]": {"system": "ROS 17/2.8 osteoblast-like cells", "assay": "DNA synthesis in ROS 17/2.8 osteoblast-like cells", "type": "cell-based, rat", "conditions": "400 nM; control 392 ± 58 c.p.m./μg of DNA"}, "[7]": {"system": "ROS 17/2.8 osteoblast-like cells", "assay": "CK specific activity in ROS 17/2.8 osteoblast-like cells", "type": "cell-based, rat", "conditions": "400 nM; control 698 ± 70 nmol/min per mg of protein"}},
  "data": [
    {"substance": "hPTH(28-47): PTH fragment 28-47, human source (LQDVHNFVALGAPLAPRDAG; Parathyroid hormone; UniProt P01270 59-78, looked up, fragment)", "values": [
      {"measurement": "[^3 H]thymidine incorporation", "setting": "[1]; 4.5 × 10^-5 mol/l", "value": "276 ± 36", "unit": "cpm"},
      {"measurement": "E/C", "setting": "[1]; 4.5 × 10^-5 mol/l", "value": 1.99},
      {"measurement": "[^3 H]thymidine incorporation", "setting": "[1]; 4.5 × 10^-6 mol/l", "value": "202 ± 17", "unit": "cpm"},
      {"measurement": "E/C", "setting": "[1]; 4.5 × 10^-6 mol/l", "value": 1.45},
      {"measurement": "[^3 H]thymidine incorporation", "setting": "[1]; 4.5 × 10^-7 mol/l", "value": "205 ± 22", "unit": "cpm"},
      {"measurement": "E/C", "setting": "[1]; 4.5 × 10^-7 mol/l", "value": 1.47},
      {"measurement": "[^3 H]thymidine incorporation", "setting": "[1]; 4.5 × 10^-8 mol/l", "value": "196 ± 25", "unit": "cpm"},
      {"measurement": "E/C", "setting": "[1]; 4.5 × 10^-8 mol/l", "value": 1.41},
      {"measurement": "Cyclic AMP concentration, effect of fragment (experimental value/control value)", "setting": "[2]", "value": "0.52 ± 0.39"},
      {"measurement": "Cyclic AMP, effect of fragment (experimental value/control value)", "setting": "[3]", "value": "1.03 ± 0.16"},
      {"measurement": "stimulation of DNA synthesis (in words)", "setting": "[4]", "value": "less"},
      {"measurement": "[3H)Thymidine incorporation, effect of fragment (experimental value/control value)", "setting": "[4]; 100 nM, 24 h, control 624 ± 73 c.p.m./μg of DNA", "value": "2.11 ± 0.09"},
      {"measurement": "CK specific activity, effect of fragment (experimental value/control value)", "setting": "[5]", "value": "2.18 ± 0.12"},
      {"measurement": "[^3 H]Thymidine incorporation, effect of fragment (experimental value/control value)", "setting": "[6]", "value": "1.44 ± 0.11"},
      {"measurement": "CK specific activity, effect of fragment (experimental value/control value)", "setting": "[7]", "value": "1.66 ± 0.11"}
    ]}
  ]
}
